According to patent US20220283165A1, “Methods of Enhancing Immunogenicity of Cancers” (The Board of Trustees of the Leland Stanford Junior …, priority 2019, published 2022):

What was measured:
[1] = system: Siglec-7 ligands on KARPAS-422 DLBCL cells; experiment: Siglec-7 ligand display by KARPAS-422 DLBCL cells after MYC inhibition; format: cell-based, human; conditions: 48 hours
Method: (§1) ST6GALNAC4 or pharmacologic MYC inhibition for 48 hours by incubation with 100 μM 10058-F4 (n(control)=8, n(KO)=4, n(inhibitor)=6, two-tailed Mann-Whitney U test). Data presented as mean ±s.d. Panel C: Representative Western blot for ST6GALNAC4 in PEER cells following MYC inhibition with 100 μM 10058-F4 for 48 hours. Data representative of two independent experiments. Panel D: Workflow to collect primary T-ALL from patients, treat with a MYC inhibitor (10058-F4), and quantify Siglec-7 ligands. Panel E: Siglec-7 ligands on patient T-ALL liquid biopsies treated with the indicated concentration of 10058-F4 for 48 hours. Data represent three donors. Panel F: Correlation of ST6GALNAC4 and MYC mRNA (RNA-seq) gene expression across all hematopoietic tumor samples (n=106) in the CCLE with MYC expression>3. Correlation determined by least squares regression. Panel G: Survival Z-score heatmap for each sialyltransferase across each hematopoietic tumor within the PRECOG database. […] Panel H: Siglec-7 ligand display by KARPAS-422 DLBCL cells following treatment with 10058-F4 for 48 hours (n=3 per group, two-tailed Student's t-test). Data presented as mean±s.d. Panel I: Survival stratified by median MYC and ST6GALNAC4 expression in a cohort of DLBCL patients (GSE4475). HR, hazard ratio from Cox Proportional Hazards model. […] Monocyte prevalence was calculated as a fraction of all lymphocytes. […]

[2] = system: Siglec-7 ligands on PEER cells; experiment: Siglec-7 ligand display (Siglec-7-Fc staining, flow cytometry) on PEER cells after MYC or CDK7/9 inhibition; format: cell-based, human; conditions: 48 hours, 10058-F4 at 100 μM
Method: as §1

[3] = system: Siglec-7 ligands on primary human T-ALL cells; experiment: Siglec-7 ligands on patient T-ALL liquid biopsies treated with MYC inhibitor; format: cell-based; conditions: FACS-sorted primary T-ALL cells, 48 hours; two of three patients had Siglec-7-Fc binding
Method: as §1, with “mean±s.d.” for “mean±s.d. Panel I: Survival stratified by median MYC and ST6GALNAC4 expression in a cohort of DLBCL patients (GSE4475). HR, hazard ratio from Cox Proportional Hazards model.”
Assessed next was whether T-ALL liquid biopsies display Siglec-7 ligands susceptible to MYC regulation. […]

ST6GALNAC4 = experiment: Western blot for ST6GALNAC4 in PEER cells after MYC inhibition; format: cell-based, human; conditions: 100 μM 10058-F4 for 48 hours
Method: as §1

Myc-Max complex = target: T1, Myc-Max complex (Homo sapiens, UniProt P01106); conditions: HL60 cells; cited from earlier work
T1 construct: host or cells: HL60 cells (for 10058-F4 only)
T1 sequence (P01106 whole entry, one chain of several): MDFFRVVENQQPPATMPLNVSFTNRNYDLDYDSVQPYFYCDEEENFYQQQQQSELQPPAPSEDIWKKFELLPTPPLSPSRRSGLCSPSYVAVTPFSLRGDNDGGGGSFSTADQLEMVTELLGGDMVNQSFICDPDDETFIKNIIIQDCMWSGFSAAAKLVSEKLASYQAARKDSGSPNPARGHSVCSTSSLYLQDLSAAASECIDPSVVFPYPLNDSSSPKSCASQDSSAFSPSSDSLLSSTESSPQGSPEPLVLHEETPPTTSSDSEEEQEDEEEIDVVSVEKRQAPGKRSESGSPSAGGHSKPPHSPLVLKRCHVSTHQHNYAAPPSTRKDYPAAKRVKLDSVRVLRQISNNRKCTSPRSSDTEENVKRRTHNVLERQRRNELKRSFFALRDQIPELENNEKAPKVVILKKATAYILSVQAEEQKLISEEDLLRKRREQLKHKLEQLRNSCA

[4] = system: hematopoietic cancers and pancreatic ductal adenocarcinoma (PDAC) exhibiting C-MYC overexpression; conditions: in vitro and in vivo; cited from earlier work
Myc-AURKA complex = Myc-AURKA complex (Homo sapiens, UniProt O14965); conditions: MYCN-amplified neuroblastomas; cited from earlier work
Sequence of Myc-AURKA complex (O14965 whole entry, one chain of several): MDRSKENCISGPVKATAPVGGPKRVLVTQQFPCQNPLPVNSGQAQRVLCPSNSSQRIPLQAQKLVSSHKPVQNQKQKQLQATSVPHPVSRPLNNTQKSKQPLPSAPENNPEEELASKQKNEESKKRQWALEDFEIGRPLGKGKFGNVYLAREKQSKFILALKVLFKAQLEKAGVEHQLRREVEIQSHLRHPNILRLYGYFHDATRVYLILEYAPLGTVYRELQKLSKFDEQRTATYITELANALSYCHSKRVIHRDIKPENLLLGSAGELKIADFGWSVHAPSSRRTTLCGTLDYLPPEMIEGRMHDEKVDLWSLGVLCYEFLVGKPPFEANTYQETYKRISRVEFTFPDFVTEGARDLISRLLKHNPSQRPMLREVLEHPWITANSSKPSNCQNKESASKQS

c-Myc = conditions: P53-mutant human hepatocellular carcinoma cells; cited from earlier work
[5] = system: MYCN-amplified neuroblastoma; conditions: xenograft model; cited from earlier work
[6] = system: MYC-overexpressing T-cell acute lymphoblastic leukemia, mixed-lineage leukemia, neuroblastomas, small cell lung cancers; conditions: cited from earlier work

## CCc1ccc(/C=C2/SC(=S)NC2=O)cc1 [10058-F4]
[1]
  reduction in Siglec-7 ligand abundance: 70%
[2]
  Siglec-7-Fc binding (Siglec-7 ligands): reduced Siglec-7-Fc binding
[3]
  Siglec-7 ligand display: reduced Siglec-7 ligand display
ST6GALNAC4
  ST6GALNAC4 protein expression: diminished ST6GALNAC4 protein expression
Myc-Max complex
  disruption of the Myc-Max complex: capable of disrupting the Myc-Max complex

## Cc1sc2c(c1C)C(c1ccc(Cl)cc1)=N[C@@H](CC(=O)OC(C)(C)C)c1nnc(C)n1-2 [JQ1]
[4]
  anti-cancer effects: potent anti-cancer effects both in vitro and in vivo

## O=C(O)c1ccc(Nc2ncc3c(n2)-c2ccc(Cl)cc2C(c2c(F)cccc2F)=NC3)cc1 [MLN8054]
Myc-AURKA complex
  N-Myc degradation and tumor regression: N-Myc degradation and tumor regression

## COc1cc(Nc2ncc3c(n2)-c2ccc(Cl)cc2C(c2c(F)cccc2OC)=NC3)ccc1C(=O)O [MLN8237]
Myc-AURKA complex
  N-Myc degradation and tumor regression: N-Myc degradation and tumor regression
c-Myc
  c-Myc degradation: induced c-Myc degradation

## CC(=O)c1cc([N+](=O)[O-])c(Sc2ccc(F)cc2F)s1 [P22077]
[5]
  growth of MYCN-amplified neuroblastoma: markedly suppressed growth

## CN(C)C/C=C/C(=O)Nc1ccc(C(=O)Nc2cccc(Nc3ncc(Cl)c(-c4c[nH]c5ccccc45)n3)c2)cc1 [THZ1]
[2]
  Siglec-7-Fc binding (Siglec-7 ligands): reduced Siglec-7-Fc binding
ST6GALNAC4
  ST6GALNAC4 protein expression: diminished ST6GALNAC4 protein expression
[6]
  anti-tumor effects: potent anti-tumor effects
